Source: ChEMBL document CHEMBL2396531, “Hybrid molecule from O2-(2,4-dinitrophenyl)diazeniumdiolate and oleanolic acid: a glutathione S-transferase π-activated nitric oxide prodrug with selective anti-human hepatocellular carcinoma activity and improved stability” (J Med Chem, 2013)

Assays:
HepG2 [1] = assay: Cytotoxicity against human HepG2 cells after 48 hrs by MTT assay; format: functional, cell-based; settings: HepG2, 48 h
SMMC-7721 [2] = assay: Cytotoxicity against human SMMC7721 cells after 72 hrs by MTT assay; format: functional, cell-based; settings: SMMC-7721, 72 h
HepG2 [3] = assay: Cytotoxicity against human HepG2 cells after 72 hrs by MTT assay; format: functional, cell-based; settings: HepG2, 72 h
HepG2 [4] = assay: Cytotoxicity against human HepG2 cells after 24 hrs by MTT assay; format: functional, cell-based; settings: HepG2, 24 h
Bel-7402 [5] = assay: Cytotoxicity against human Bel7402 cells after 72 hrs by MTT assay; format: functional, cell-based; settings: Bel-7402, 72 h
Mus musculus [6] = assay: Acute toxicity in mouse assessed as mortality at 383.1 umol/kg, ip after 14 days; format: organism-based; settings: in vivo, 336 h
HepG2 [7] = assay: Induction of intracellular NO release in human HepG2 cells at 30 uM after 6 hrs by Griess assay relative to JS-K; format: functional
HepG2 [8] = assay: Cytotoxicity against human HepG2 cells assessed as cell viability at 3 uM after 24 hrs by MTT assay; format: functional; settings: HepG2, 24 h, read-out: Activity
[9] = Metabolic stability in Sprague-Dawley rat plasma at 40 uM after 9 hrs by HPLC analysis; format: ADME, cell-free; settings: read-out: Stability
HepG2 [10] = assay: Cytotoxicity against human HepG2 cells assessed as cell viability at 3 uM after 24 hrs by MTT assay in presence of EA; format: functional; settings: HepG2, 24 h, read-out: Activity
Mus musculus [11] = assay: Acute toxicity in mouse assessed as activity at 196.1 umol/kg, ip after 14 days; format: organism-based; settings: in vivo, 336 h
H22 [12] = assay: Antitumor activity against mouse H22 cells […] in mouse assessed as inhibition of tumor growth at 9.6 umol/kg, ip after 14 days relative to vehicle-treated control; format: functional; settings: 336 h
Mus musculus [13] = assay: Acute toxicity in mouse assessed as mortality at 196.1 umol/kg, ip after 14 days; format: organism-based; settings: in vivo, 336 h
HepG2 [14] = assay: Induction of intracellular NO release in human HepG2 cells at 30 uM after 6 hrs by Griess assay relative to PABA/NO; format: functional
SMMC-7721 [15] = assay: Cytotoxicity against human SMMC7721 cells at 30 uM after 24 hrs by MTT assay; format: functional
Mus musculus [16] = assay: Acute toxicity in mouse assessed as body weight at 196.1 umol/kg, ip after 14 days; format: organism-based; settings: in vivo, 336 h
Mus musculus [17] = assay: Acute toxicity in mouse assessed as abnormality in drinking at 196.1 umol/kg, ip after 14 days; format: organism-based; settings: in vivo, 336 h
H22 [18] = assay: Antitumor activity against mouse H22 cells […] in mouse assessed as inhibition of tumor growth at 19.2 umol/kg, ip after 14 days relative to vehicle-treated control; format: functional; settings: 336 h
[19] = molecular target: Glutathione S-transferase P (Homo sapiens, UniProt P09211); assay: Activity at GSTpi (unknown origin) assessed as compound decomposition in presence of 1mM GSH at 40 uM by microplate reader analysis; format: ADME
[20] = Activity at GSTalpha (unknown origin) assessed as compound decomposition in presence of 1mM GSH at 40 uM by microplate reader analysis; format: ADME; settings: human
HepG2 [21] = assay: Cytotoxicity against human HepG2 cells at 30 uM after 24 hrs by MTT assay; format: functional
[22] = (§1) Activity at GSTalpha (unknown origin) by Michaelis-Menten equation; format: ADME; settings: human
GSTalpha = assay: as §1; format: ADME; settings: human, GSTalpha enzyme
[23] = Cytotoxicity against human LO2 cells at 1 to 4 uM after 24 hrs by MTT assay; format: cell-based; settings: l02, 24 h
[24] = Chemical stability in PBS buffer at pH 7.4 in presence of 1 mM GSH at room temperature for 30 mins by spectrophotometry; format: physicochemical; settings: pH 7.4, 0.5 h
Bel-7402 [25] = assay: Cytotoxicity against human Bel7402 cells at 30 uM after 24 hrs by MTT assay; format: functional
[26] = Acute toxicity in ip dosed mouse after 14 days; format: organism-based; settings: in vivo
[27] = Activity at GSTalpha (unknown origin) assessed per mg protein by Michaelis-Menten equation; format: ADME; settings: human
Mus musculus [28] = assay: Acute toxicity in mouse assessed as abnormality in eating at 196.1 umol/kg, ip after 14 days; format: organism-based; settings: in vivo, 336 h
H22 [29] = assay: Antitumor activity against mouse H22 cells […] in mouse assessed as inhibition of tumor growth at 38.3 umol/kg, ip after 14 days relative to vehicle-treated control; format: functional; settings: 336 h
Plasma = assay: Metabolic stability in Sprague-Dawley rat plasma at 40 uM after 6 hrs by HPLC analysis; format: ADME, cell-free
[30] = Chemical stability in PBS buffer at pH 7.4 in presence of 5 mM GSH at 37 degC after 100 mins by HPLC analysis; format: physicochemical; settings: PBS buffer with 5 mM GSH, read-out: Stability
H22 [31] = assay: Antitumor activity against mouse H22 cells […] in mouse assessed as inhibition of tumor growth at 153.8 umol/kg, ip after 14 days relative to vehicle-treated control; format: functional; settings: 336 h
[32] = Chemical stability in PBS buffer at pH 7.4 in presence of 4 mM GSH at 37 degC after 15 to 20 mins by HPLC analysis; format: physicochemical

Sequence of Glutathione S-transferase P (P09211 whole entry): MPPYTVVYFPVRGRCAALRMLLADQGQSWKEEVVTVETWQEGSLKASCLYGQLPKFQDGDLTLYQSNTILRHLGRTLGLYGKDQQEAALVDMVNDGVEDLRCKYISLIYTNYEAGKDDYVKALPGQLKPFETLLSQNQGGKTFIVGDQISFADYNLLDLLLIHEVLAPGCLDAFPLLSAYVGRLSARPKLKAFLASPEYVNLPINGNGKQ

CN(CCO)/[N+]([O-])=N/Oc1cc(NCC(=O)O[C@H]2CC[C@]3(C)[C@H]4CC=C5[C@@H]6CC(C)(C)CC[C@]6(C(=O)O[C@@H]6O[C@H](CO)[C@H](O)[C@H](O)[C@H]6O)CC[C@@]5(C)[C@]4(C)CC[C@H]3C2(C)C)c([N+](=O)[O-])cc1[N+](=O)[O-]
IC50 (HepG2 [1]): 6.65 µM | IC50 (SMMC-7721 [2]): 7.44 µM | IC50 (HepG2 [3]): 3.65 µM | IC50 (HepG2 [4]): 9.59 µM | IC50 (Bel-7402 [5]): 5.68 µM

CN(CCO)/[N+]([O-])=N\Oc1cc(N2CCN(CC(=O)O[C@H]3CC[C@]4(C)[C@H]5CC=C6[C@@H]7CC(C)(C)CC[C@]7(C(=O)O[C@@H]7O[C@H](CO)[C@H](O)[C@H](O)[C@H]7O)CC[C@@]6(C)[C@]5(C)CC[C@H]4C3(C)C)CC2)c([N+](=O)[O-])cc1[N+](=O)[O-]
Activity (Mus musculus [6]): Toxic | Ratio (HepG2 [7]): 2 | viability at 3 µM (HepG2 [8]): 17% | IC50 (HepG2 [1]): 2.11 µM | remaining at 9 h, 40 µM [9]: 80% | viability at 3 µM (HepG2 [10]): 41.7% | Activity (Mus musculus [11]): Non-toxic | inhibition in vivo at 9.6 µmol/kg (H22 [12]): 13.4% | Activity (Mus musculus [13]): Non-toxic | Ratio (HepG2 [14]): 2 | Cytotoxicity (SMMC-7721 [15]): 80% | Activity (Mus musculus [16]): Non-toxic | Activity (Mus musculus [17]): Non-toxic | inhibition in vivo at 19.2 µmol/kg (H22 [18]): 36.1% | Activity [19]: Active | Activity [20]: Active | Cytotoxicity (HepG2 [21]): 80% | Kcat [22]: 0.72 s⁻¹ | Km (GSTalpha): 264 µM | Activity [23]: Toxic | Stability [24]: Stable | Cytotoxicity (Bel-7402 [25]): 80% | IC50 (SMMC-7721 [2]): 2.3 µM | IC50 (HepG2 [3]): 1.41 µM | IC50 (HepG2 [4]): 3.38 µM | LD50 at 336 h [26]: 250 µmol/kg | Vmax [27]: 1.69 µmol/min | Activity (Mus musculus [28]): Non-toxic | IC50 (Bel-7402 [5]): 1.45 µM | inhibition in vivo at 38.3 µmol/kg (H22 [29]): 68.4% | Stability (Plasma): Stable | remaining at 100 min [30]: 78%

O=c1[nH]cc(F)c(=O)[nH]1 [FLUOROURACIL]
inhibition in vivo at 153.8 µmol/kg (H22 [31]): 57.5%

CCOC(=O)N1CCN(/[N+]([O-])=N/Oc2ccc([N+](=O)[O-])cc2[N+](=O)[O-])CC1
IC50 (HepG2 [1]): 7.12 µM | Stability [32]: Unstable | Cytotoxicity (SMMC-7721 [15]): 67% | Cytotoxicity (HepG2 [21]): 67% | Stability [24]: Stable | Cytotoxicity (Bel-7402 [25]): 67% | IC50 (SMMC-7721 [2]): 7.31 µM | IC50 (HepG2 [3]): 5.19 µM | IC50 (HepG2 [4]): 12.2 µM | IC50 (Bel-7402 [5]): 5.17 µM

C[C@H](Nc1cc(O/N=[N+](\[O-])N(C)CCO)c([N+](=O)[O-])cc1[N+](=O)[O-])C(=O)O[C@H]1CC[C@]2(C)[C@H]3CC=C4[C@@H]5CC(C)(C)CC[C@]5(C(=O)O[C@@H]5O[C@H](CO)[C@H](O)[C@H](O)[C@H]5O)CC[C@@]4(C)[C@]3(C)CC[C@H]2C1(C)C
IC50 (HepG2 [1]): 7.89 µM | IC50 (SMMC-7721 [2]): 8.84 µM | IC50 (HepG2 [3]): 6.91 µM | IC50 (HepG2 [4]): 9.12 µM | IC50 (Bel-7402 [5]): 7.38 µM

CN(CCO)/[N+]([O-])=N\Oc1cc(NCCC(=O)O[C@H]2CC[C@]3(C)[C@H]4CC=C5[C@@H]6CC(C)(C)CC[C@]6(C(=O)O[C@@H]6O[C@H](CO)[C@H](O)[C@H](O)[C@H]6O)CC[C@@]5(C)[C@]4(C)CC[C@H]3C2(C)C)c([N+](=O)[O-])cc1[N+](=O)[O-]
IC50 (HepG2 [1]): 3.56 µM | Cytotoxicity (SMMC-7721 [15]): >70% | Cytotoxicity (HepG2 [21]): >70% | Cytotoxicity (Bel-7402 [25]): >70% | IC50 (SMMC-7721 [2]): 3.97 µM | IC50 (HepG2 [3]): 2.05 µM | IC50 (HepG2 [4]): 5.45 µM | IC50 (Bel-7402 [5]): 2.36 µM
